According to patent US8063225B2, “Tricyclic compound derivatives useful in the treatment of neoplastic diseases, inflammatory disorders and immunomodulatory disorders” (Chembridge Corporation, priority 2006, dated 2011):

Legend:
IGF1R tyrosine kinase = target: T1, IGF1R tyrosine kinase (Homo sapiens, UniProt P08069); assay: IGF1R tyrosine kinase assay (Kinase-Glo ATP depletion or PT66/PT100 AlphaScreen); conditions: biochemical tyrosine kinase assay
T1 construct: 6×His- or GST-tagged kinase domain fragments of the corresponding RTKs expressed in baculovirus system; host or cells: baculovirus system
Summary of the method: (§1)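 Kinase-Glo format: baculovirus-expressed tagged kinase domain, poly(Glu-Tyr), 10 μM ATP, pH 7.5 Tris, MgCl2/MnCl2, DTT; 60 min at 37° C; remaining ATP by luciferase luminescence. Other kinases run identically, enzyme titrated to ≤30% ATP consumption. IC50 by non-linear regression, quadruplicates.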

InsR = target: T2, InsR (Homo sapiens, UniProt P06213); assay: Tyrosine kinase assay (Kinase-Glo or AlphaScreen), InsR; conditions: biochemical tyrosine kinase assay
T2 construct: 6×His- or GST-tagged kinase domain fragments of the corresponding RTKs expressed in baculovirus system; host or cells: baculovirus system
Summary of the method: as §1

Alk = target: T3, Alk (Homo sapiens, UniProt Q9UM73); assay: Tyrosine kinase assay (Kinase-Glo or AlphaScreen), Alk; conditions: biochemical tyrosine kinase assay
T3 construct: 6×His- or GST-tagged kinase domain fragments of the corresponding RTKs expressed in baculovirus system; host or cells: baculovirus system
Summary of the method: as §1

Jak2 = target: T4, Jak2 (Homo sapiens, UniProt O60674); assay: Tyrosine kinase assay (Kinase-Glo or AlphaScreen), Jak2; conditions: biochemical tyrosine kinase assay
T4 construct: 6×His- or GST-tagged kinase domain fragments of the corresponding RTKs expressed in baculovirus system; host or cells: baculovirus system
Summary of the method: as §1

H929 (multiple myeloma) = assay: Cell proliferation inhibition, Cell Titer-Glo, H929; assay type: cell-based; conditions: Homo sapiens, NCI-H929; cell proliferation assay, H929 cells
Method: (§2) IGF1R and other tyrosine kinase inhibitors can inhibit the proliferation of certain cancer cell lines indicating their possible therapeutic utility for treating the corresponding cancer types. Cancer cell lines of interest and control normal lines, including CHO, HEK293, BA/F3, MM1, H929, COLO205, PC3, DU145, MCF7, Panc1, ACHN, Hep G2, H460, K562, TT, U87-G, CAOV-3, SK-MEL5, Karpas 299, are plated in white, clear-bottomed 384-well cell culture plates at 2500-5000 cells per well and supplied with dilutions of tested compounds After a desired period of time (typically 3 days), the number of viable cells is quantitated by using Cell Titer-Glo Luminescent Cell Viability Assay (Promega), a cell proliferation assay system based on detection of total amount of ATP present as a measure of cell metabolic activity. The plated cells are mixed with the Cell Titer-Glo developing reagent and counted in a luminescence multiwell plate reader according to the standard manufacturer's protocol to generate IC50 curves for cell proliferation inhibition.
(§3) IGF1R and other tyrosine kinase inhibitors can inhibit the proliferation of certain cancer cell lines indicating their possible therapeutic utility for treating the corresponding cancer types. Cancer cell lines of interest and control normal lines, including CHO, HEK293, BA/F3, COLO205, PC3, DU145, MCF7, Panc1, ACHN, Hep G2, H460, K562, TT, U87-MG, CAOV-3, SK-MEL5, Karpas 299 and human multiple myeloma cell lines H929, MM1s, MM1r, UTMC2, CPM2, KMS11, My5, KMS12PE, My7, JJN3, KMS18, U266, SKMM2, RPMI-8226 are plated in white, clear-bottomed 384-well cell culture plates at 2500-5000 cells per well and supplied with dilutions of tested compounds After a desired period of time (typically 3 days), the number of viable cells is quantitated by using Cell Titer-Glo Luminescent Cell Viability Assay (Promega), a cell proliferation assay system based on detection of total amount of ATP present as a measure of cell metabolic activity. The plated cells are mixed with the Cell Titer-Glo developing reagent and counted in a luminescence multiwell plate reader according to the standard manufacturer's protocol to generate IC50 curves for cell proliferation inhibition. Results are typically reported as percent of growth (% viability =(OD72h(compound)−ODday0))/(OD72h(no compound)−ODday0). Alternatively, viable cells are quantitated by using the conventional colorimetric MTT assay. The MTT assay is based on the cleavage of the yellow tetrazolium salt MTT to purple formazan crystal by metabolic active cells. The formazan is then solubilized, and the concentration determined by optical density at 570 nm. The cells plated and incubated with a compound as described above are supplemented with the solution of MTT and incubated for 2-3 hours. The growth medium is removed and dimethyl sulfoxide is added into each well to dissolve the formazan. The absorbance is measured on an ELISA plate reader with a test wavelength of 570 nm and a background subtraction wavelength of 630 nm to obtain sample signal (OD570-OD630). […] The results are reported in terms of IC50 value for a particular compound and a cell line in the standard 3-day proliferation assay using Cell Titer-Glo. […] The results are reported in terms of IC50 value for a particular compound and a cell line in the standard 3-day proliferation assay using MTT assay.

[1] = system: CHO (chinese hamster ovary); assay: Cell proliferation inhibition, Cell Titer-Glo, CHO; assay type: cell-based; conditions: Cricetulus griseus; cell proliferation assay, CHO cells
Method: as §2, §3

IGF1 receptor = target: T5, IGF1 receptor (Homo sapiens, UniProt P08069); assay: ELISA-based assay of IGF1 receptor autophosphorylation inhibition in cells; assay type: cell-based; conditions: IGF1R phosphorylation inhibition in MCF7 cells
T5 construct: MCF7 human breast cancer cells expressing IGF1 receptor; endogenous in cells; host or cells: MCF7 human breast cancer cells
Method: In another embodiment, compounds that interact with the IGF1R kinase domain are tested in a cell-based assay system. In accordance with this embodiment, cells expressing a full-length IGF1 receptor or a fragment thereof containing the IGF1R kinase domain, are contacted with a candidate or a control compound and the ability of the compound to block tyrosine kinase activity of IGF1R within a cell is determined. This assay may be used to screen a single compound or a large library of candidate compounds. Typically, the cells or cell lines are of mammalian origin and they can express the IGF1 receptor, or functional IGF1R kinase domain fragment, endogenously or be genetically engineered to express the IGF1R, or functional fragment thereof. The ability of the candidate compound to inhibit IGF1R kinase activity can be determined by methods known to those skilled in the art. For example, the inhibition can be determined by ELISA-type assay or Western blot analysis with cell lysates or immunoprecipitated IGF1R receptor using various anti-IGF1R and anti-phosphotyrosine antibodies.
In general, cells expressing IGF1R are treated with modulators (i.e., inhibitors or activators) of IGF1R kinase activity and cell lysates are produced from these treated cells. IGF1Rs are isolated from the lysate by immunoprecipitation and analyzed for phosphotyrosine content. Alternatively, or in addition, cellular protein substrates phosphorylated by IGFR may be immunoprecipitated from the lysates and their degree of tyrosine phosphorylation determined.
MCF7 human breast cancer cells expressing IGF1 receptor or an engineered […] fibroblast cell line NIH 3T3 overexpressing full-length IGF1R are an exemplary cellular models in which to perform such assays. Such cells may be maintained in DMEM medium supplemented with 10% fetal bovine serum (FBS), 4% L-glutamine, 1% antibiotic solution (penicillin-Streptomycin) in a humidified atmosphere of 95% air and 5% CO2 at 37° C. Confluent cells in T175 cell culture flasks are incubated overnight with serum-free DMEM medium. After the serum starvation step, the cells are detached and split into a standard 96-well cell culture plate (one T175 flask per plate, 30 μl of cell suspension per plate well). Tested inhibitors from their 10 mM stock solutions in DMSO are subsequently added at various concentrations in serum-free DMEM medium for 1 hour incubation at 37° C. in CO2-incubator; total DMSO concentration in both treated and control wells is adjusted to 1%. Cells are then stimulated for 10 minutes with 100 nM IGF-1 added in 30 μl DMEM. After treatment, cells are lysed by addition of 30 μl of 4× lysis buffer (phosphate-buffered saline (PBS), 2% Triton-X100, 1 mM phenylmethylsulphonyl fluoride (PMSF) and 8 mM activated orthovanadate), mixing and incubation for 15 minute at room temperature. To prepare assay plates, 96-well ELISA Plates (Pierce Chemical, Reacti-bind plates) were coated by goat-anti-rabbit Fc antiserum by adding 0.25 μg antiserum per well in 0.2M sodium bicarbonate buffer per well and incubating overnight at 4° C. After incubation, the plate is washed three times by PBS with 0.02% Tween-20, supplied with 25 ng/50 μl per well of anti-IGF1R antibody (C-20, Santa Cruz Biotechnology) and incubated for several hours to overnight. Prior to the addition of the prepared cellular lysates, the antibody solution is aspirated, wells washed with PBS and supplied with 25 μl per well of Starting Block buffer (Pierce Chemical).
To measure tyrosine phosphorylation of the beta-subunits of the IGF1R, 25-50 μl of the lysates are transferred from the stimulation plate to the wells of the prepared assay plate and incubated overnight at 4° C. The wells are washed with PBS with 0.02% Tween-20, incubated with 50 μl of 1:3000 dilution of anti-phosphotyrosine 4G10-HRP antibody conjugate (Upstate Biotechnology) for 2 hours at room temperature and washed again. […]

T4 sequence (O60674 849-1124 limits assumed, species assumed): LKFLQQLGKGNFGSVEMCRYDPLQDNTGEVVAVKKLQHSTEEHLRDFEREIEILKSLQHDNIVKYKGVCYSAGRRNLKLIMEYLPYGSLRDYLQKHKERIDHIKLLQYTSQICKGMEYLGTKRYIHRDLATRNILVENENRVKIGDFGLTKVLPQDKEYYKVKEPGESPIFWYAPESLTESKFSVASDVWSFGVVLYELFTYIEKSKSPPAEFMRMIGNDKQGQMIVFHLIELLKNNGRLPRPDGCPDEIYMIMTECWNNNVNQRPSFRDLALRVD
T2 sequence (P06213 1023-1298 limits assumed, species assumed): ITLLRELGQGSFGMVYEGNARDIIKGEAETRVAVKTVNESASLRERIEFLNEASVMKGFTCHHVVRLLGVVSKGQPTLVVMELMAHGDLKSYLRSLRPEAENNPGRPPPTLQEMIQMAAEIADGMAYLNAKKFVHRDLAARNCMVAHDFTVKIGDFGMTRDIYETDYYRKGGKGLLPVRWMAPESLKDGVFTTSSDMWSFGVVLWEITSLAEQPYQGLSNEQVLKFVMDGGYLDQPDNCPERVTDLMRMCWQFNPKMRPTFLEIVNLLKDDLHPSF
T5 sequence (P08069 741-1367 limits assumed): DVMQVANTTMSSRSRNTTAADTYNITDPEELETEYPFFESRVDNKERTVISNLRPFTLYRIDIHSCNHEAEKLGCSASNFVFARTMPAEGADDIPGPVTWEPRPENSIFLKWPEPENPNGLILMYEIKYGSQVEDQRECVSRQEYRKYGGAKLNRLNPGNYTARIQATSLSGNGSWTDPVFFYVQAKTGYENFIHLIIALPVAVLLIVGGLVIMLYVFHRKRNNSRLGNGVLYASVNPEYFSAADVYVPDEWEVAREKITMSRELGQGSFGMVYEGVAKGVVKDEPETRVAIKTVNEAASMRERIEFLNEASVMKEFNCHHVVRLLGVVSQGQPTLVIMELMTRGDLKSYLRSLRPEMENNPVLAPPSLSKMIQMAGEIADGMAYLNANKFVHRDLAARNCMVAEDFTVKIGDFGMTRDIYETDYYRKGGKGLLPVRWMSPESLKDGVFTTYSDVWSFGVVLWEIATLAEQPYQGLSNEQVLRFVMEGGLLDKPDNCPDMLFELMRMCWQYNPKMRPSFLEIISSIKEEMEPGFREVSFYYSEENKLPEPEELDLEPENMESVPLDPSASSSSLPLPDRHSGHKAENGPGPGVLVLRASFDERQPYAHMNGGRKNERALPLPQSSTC
T5 sequence (P08069 31-736 partner limits assumed): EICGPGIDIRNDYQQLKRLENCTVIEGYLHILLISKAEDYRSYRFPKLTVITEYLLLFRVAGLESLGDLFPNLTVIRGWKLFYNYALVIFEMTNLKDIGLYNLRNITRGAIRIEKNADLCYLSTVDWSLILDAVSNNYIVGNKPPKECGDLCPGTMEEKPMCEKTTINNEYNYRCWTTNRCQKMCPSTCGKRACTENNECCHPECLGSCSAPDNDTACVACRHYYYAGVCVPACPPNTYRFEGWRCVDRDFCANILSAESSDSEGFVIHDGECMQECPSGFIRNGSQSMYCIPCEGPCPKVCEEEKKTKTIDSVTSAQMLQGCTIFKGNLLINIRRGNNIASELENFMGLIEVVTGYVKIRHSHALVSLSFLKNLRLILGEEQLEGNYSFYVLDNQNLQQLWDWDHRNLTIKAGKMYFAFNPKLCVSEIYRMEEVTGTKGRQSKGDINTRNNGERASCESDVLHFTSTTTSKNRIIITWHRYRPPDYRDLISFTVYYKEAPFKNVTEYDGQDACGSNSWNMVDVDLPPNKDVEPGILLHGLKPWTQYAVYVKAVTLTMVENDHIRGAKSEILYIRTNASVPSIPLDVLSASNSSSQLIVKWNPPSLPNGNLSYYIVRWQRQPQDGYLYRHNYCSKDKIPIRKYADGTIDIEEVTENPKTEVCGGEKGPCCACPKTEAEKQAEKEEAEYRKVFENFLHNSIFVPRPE
T1 sequence (P08069 999-1274 limits assumed): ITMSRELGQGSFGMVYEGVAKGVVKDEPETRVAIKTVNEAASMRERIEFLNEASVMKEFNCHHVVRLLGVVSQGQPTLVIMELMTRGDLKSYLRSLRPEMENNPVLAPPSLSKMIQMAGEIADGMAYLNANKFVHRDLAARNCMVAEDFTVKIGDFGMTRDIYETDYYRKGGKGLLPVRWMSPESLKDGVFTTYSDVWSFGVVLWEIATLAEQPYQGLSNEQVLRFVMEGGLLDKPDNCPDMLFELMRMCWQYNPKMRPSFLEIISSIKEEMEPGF
T3 sequence (Q9UM73 1116-1392 limits assumed, species assumed): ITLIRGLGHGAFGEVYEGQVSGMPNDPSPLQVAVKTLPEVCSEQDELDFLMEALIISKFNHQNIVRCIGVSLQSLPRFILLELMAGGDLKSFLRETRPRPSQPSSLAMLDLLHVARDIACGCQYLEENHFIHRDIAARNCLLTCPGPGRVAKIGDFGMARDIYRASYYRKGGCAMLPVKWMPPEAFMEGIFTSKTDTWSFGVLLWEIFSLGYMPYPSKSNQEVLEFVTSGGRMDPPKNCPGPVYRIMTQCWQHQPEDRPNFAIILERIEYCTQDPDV

| Structure (SMILES) | IC50 (IGF1R tyrosine kinase) [µM] | IC50 (InsR) [µM] | IC50 (Alk) [µM] | IC50 (Jak2) [µM] | IC50 (H929 (multiple myeloma)) [µM] | IC50 [1] [µM] | IC50 (IGF1 receptor) [µM] |
| --- | --- | --- | --- | --- | --- | --- | --- |
| CN1CCC(N2Cc3cc4nc(-c5c(NC[C@@H](O)COc6c(F)ccc(F)c6Cl)cc[nH]c5=O)[nH]c4cc3C2=O)CC1 [compound 155] | < 0.5 | < 0.5 | 5 to 15 | < 0.5 | 5 to 15 | > 15 |  |
| CCc1cc2c(cc1OC[C@H](O)CNc1cc[nH]c(=O)c1-c1nc3cc4c(cc3[nH]1)C(=O)N(C1CCN(C)CC1)C4)OCO2 [compound 156] | < 0.5 | < 0.5 | 0.5 to 5 | < 0.5 | 5 to 15 | > 15 |  |
| CN1CCN(CCCN2C(=O)c3cc4nc(-c5c(NC[C@@H](O)c6cccc(Cl)c6)cc[nH]c5=O)[nH]c4cc3C2=O)CC1 [compound 19] | < 0.5 | 0.5 to 5 | 0.5 to 5 | 0.5 to 5 |  |  | > 15 |
| CN1CCC(N2C(=O)c3cc4nc(-c5c(NCC(O)COc6ccc(C(C)(C)C)cc6)cc[nH]c5=O)[nH]c4cc3C2=O)CC1 (centres unmarked) [compound 14] | 0.5 to 5 | 0.5 to 5 | > 15 | 0.5 to 5 |  |  | 0.5 to 5 |
| Cc1cc(OCC(O)CNc2cc[nH]c(=O)c2-c2nc3cc4c(cc3[nH]2)C(=O)N(C2CCN(C)CC2)C4=O)ccc1Cl (centres unmarked) [compound 10] | 5 to 15 | 0.5 to 5 | > 15 | 5 to 15 |  |  | > 15 |
| CN1CCC(N2C(=O)c3cc4nc(-c5c(NCC(O)COc6ccccc6)cc[nH]c5=O)[nH]c4cc3C2=O)CC1 (centres unmarked) [compound 23] | 0.5 to 5 | 0.5 to 5 | 5 to 15 | 0.5 to 5 |  |  | 5 to 15 |
| CN1CCCC1CCN1C(=O)c2cc3nc(-c4c(NC[C@@H](O)c5cccc(Cl)c5)cc[nH]c4=O)[nH]c3cc2C1=O (some centres unmarked) [compound 18] | < 0.5 | 0.5 to 5 | 0.5 to 5 | 0.5 to 5 |  |  | > 15 |
| O=C1c2cc3nc(-c4c(NC[C@@H](O)c5cccc(Cl)c5)cc[nH]c4=O)[nH]c3cc2C(=O)N1CCCN1CCOCC1 [compound 12] | > 15 | > 15 | > 15 | > 15 |  |  | 0.5 to 5 |
| O=C1NC(=O)c2cc3[nH]c(-c4c(NC[C@@H](O)c5cccc(Cl)c5)cc[nH]c4=O)nc3cc21 [compound 11] | > 15 | 5 to 15 | 5 to 15 | 5 to 15 |  |  | 0.5 to 5 |
| O=C1c2cc3nc(-c4c(NC[C@@H](O)c5cccc(Cl)c5)cc[nH]c4=O)[nH]c3cc2C(=O)N1CCN1CCCC1 [compound 17] |  |  |  |  |  |  | > 15 |
| CN1CCN(CCN2C(=O)c3cc4nc(-c5c(NC[C@@H](O)c6cccc(Cl)c6)cc[nH]c5=O)[nH]c4cc3C2=O)CC1 [compound 20] | 0.5 to 5 | 0.5 to 5 | 0.5 to 5 | 0.5 to 5 |  |  | > 15 |
| CN1CCC(N2C(=O)c3cc4nc(-c5c(NC[C@@H](O)COc6ccc(F)cc6)cc[nH]c5=O)[nH]c4cc3C2=O)CC1 [compound 21] | 0.5 to 5 | 0.5 to 5 | 0.5 to 5 | 0.5 to 5 |  |  | 5 to 15 |
| CN1CCC(N2C(=O)c3cc4nc(-c5c(NC[C@H](O)COc6ccc(F)cc6)cc[nH]c5=O)[nH]c4cc3C2=O)CC1 [compound 22] | 0.5 to 5 | 0.5 to 5 | 0.5 to 5 | 0.5 to 5 |  |  | > 15 |
| O=C1c2cc3nc(-c4c(NC[C@@H](O)c5cccc(Cl)c5)cc[nH]c4=O)[nH]c3cc2C(=O)N1CC1CCN(CCO)CC1 [compound 13] | < 0.5 | < 0.5 | 0.5 to 5 | 0.5 to 5 |  |  | 0.5 to 5 |
